In general, inhibition refers to the share of the control response that was lost under treatment.

For experiment [1], the system named is A.D.P. induced blood-platelet aggregation. In words: Determination of A.D.P. induced blood-platelet aggregation. Format: in vivo. Particulars: Wistar rats, 100 mg/kg orally, 3 hours after treatment, 10 μM A.D.P. solution, vs reference group, groups of 20 rats; for inhibition at 100 mg/kg: Rattus norvegicus, po, read-out: Percent inhibition of blood-platelet aggregation, A.D.P. The procedure: (§1) 1. Blood-platelet aggregation inhibiting activity
(§2) Blood is taken from the jugular vein of Wistar rats. From this citrated blood and after centrifugation, is reconstituted a plasma containing 600,000±20,000 blood-platelets per mm3 which will be used in all aggregation determinations.
(§3) 0.4 ml of plasma is placed in a siliconized tube provided with a magnet bar which is also siliconized. The tube is introduced into an aggregometer connected with an apparatus which records optical density variations. When light transmission has attained a stable value, 0.5 ml of a solution containing 10 μM A.D.P. (Adenosine-Di-Phosphate) are introduced into the tube.
(§4) Blood-platelet aggregation then produces an increase of light transmission followed by a decrease subsequent to the deaggregation phase.
(§5) The maximal optical density variation thus determined characterizes the intensity of the aggregation.
(§6) Different groups of 20 rats each are used, each group being orally administered a test derivative at a dosage of 100 mg/kg.

The subject of experiment [2] is collagen-induced blood-platelet aggregation. The experiment can be described thus: Determination of collagen-induced blood-platelet aggregation. Particulars: Wistar rats, 100 mg/kg orally, 3 hours after treatment, collagen solution (bovine tendon extract), vs reference group, groups of 20 rats; for inhibition at 100 mg/kg: Rattus norvegicus, po, read-out: Percent inhibition of blood-platelet aggregation, Collagen. The class given is in vivo. The procedure:
as §1, §2, §3, §4, §5
The A.D.P. solution is substituted with a collagen solution (bovine tendon extract).
as §6

Consider `CC1NCc2c(sc3ccc(Cl)cc23)C1c1ccccc1` (centres unmarked) [Example 1, 8-Chloro-3-methyl-4-phenyl-1,2,3,4-tetrahydro-benzo(b)-thieno[3,2-c]pyridine], for which the inhibition at 100 mg/kg in experiment [1] was 62.1%; in experiment [2], 91.4%.

With `CC1NCc2c(sc3ccccc23)C1c1ccccc1` (centres unmarked) [Example 2, 3-Methyl-4-phenyl-1,2,3,4-tetrahydro-benzo(b)-thieno[3,2-c]-pyridine], the inhibition at 100 mg/kg in experiment [1] was determined as 61.7%; in experiment [2], 93.8%.

For the compound `Clc1ccc2sc3c(c2c1)CNCC3c1ccccc1` (centres unmarked) [Example 3, 8-Chloro-1-phenyl-1,2,3,4-tetrahydro-benzo(b)thieno[3,2-c]-pyridine], the inhibition at 100 mg/kg in experiment [1] was 62.9%; in experiment [2], 90.5%.

Turning to `c1ccc(C2CNCc3c2sc2ccccc32)cc1` (centres unmarked) [Example 4, 4-Phenyl-1,2,3,4-tetrahydro-benzo(b)thieno[3,2-c]pyridine], the inhibition at 100 mg/kg is 61.5% in experiment [1] and 90.8% in experiment [2].

On to `CC1C(c2ccccc2)c2sc3ccc(Cl)cc3c2CN1C` (centres unmarked) [Example 5, 8-Chloro-2,3-dimethyl-4-phenyl-1,2,3,4-tetrahydro-benzo(b)-thieno[3,2-c]pyridine], for which the inhibition at 100 mg/kg in experiment [1] is 60.8%; in experiment [2], 91.2%.

As to `CC1C(c2ccccc2)c2sc3ccc(Cl)cc3c2CN1Cc1ccccc1Cl` (centres unmarked) [Example 6, 8-Chloro-2-o-chlorobenzyl-3-methyl-4-phenyl-1,2,3,4-tetrahydro-benzo(b)thieno[3,2-c]pyridine], the inhibition at 100 mg/kg in experiment [1] amounted to 61.2%; in experiment [2], 94.4%.

On to `CC1C(c2ccccc2)c2sc3ccc(Cl)cc3c2CN1Cc1ccccc1` (centres unmarked) [Example 7, 2-Benzyl-8-chloro-3-methyl-4-phenyl-1,2,3,4-tetrahydro-benzo(b)thieno[3,2-c]pyridine], for which the figures for the inhibition at 100 mg/kg in experiment [1] and in experiment [2] were 63% and 95.1%, respectively.

`Cc1ccc(N2Cc3c(sc4ccccc34)C(c3ccccc3)C2)cc1` (centres unmarked) [Example 8, 4-Phenyl-2-p.tolyl-1,2,3,4-tetrahydro-benzo(b)-thieno[3,2-c]-pyridine]: the “Percent inhibition of blood-platelet aggregation, A.D.P.” value in experiment [1] is recorded as 61.4%. In addition, the “Percent inhibition of blood-platelet aggregation, Collagen” value in experiment [2] came to 90.6%.

For `COc1cccc(CN2Cc3c(sc4ccccc34)C(c3ccccc3)C2C)c1` (centres unmarked) [Example 9, 3-Methyl-P2-m.methoxybenzyl-4-phenyl-1,2,3,4-tetrahydro-benzo(b)thieno[3,2-c]pyridine], the inhibition at 100 mg/kg in experiment [1] is 61.8%; in experiment [2] it was 91.2%.

Regarding `COc1cc(CN2Cc3c(sc4ccc(Cl)cc34)C(c3ccccc3)C2C)cc(OC)c1OC` (centres unmarked) [Example 10, 8-Chloro-2-(3,4,5-trimethoxy-benzyl)-3-methyl-4-phenyl-1,2,3,4-tetrahydro-benzo(b)thieno[3,2-c]pyridine], the inhibition at 100 mg/kg in experiment [1] was 60.2%; in experiment [2] it was 94.5%.

As to `O=[N+]([O-])c1ccccc1CN1Cc2c(sc3ccc(Cl)cc23)C(c2ccccc2)C1` (centres unmarked) [Example 11, 8-Chloro-2-o.nitrobenzyl-4-phenyl-1,2,3,4-tetrahydro-benzo(b)thieno[3,2-c]pyridine], the inhibition at 100 mg/kg came to 62.5% in experiment [1] and 92.7% in experiment [2].

Regarding `N#Cc1ccccc1CN1Cc2c(sc3ccccc23)C(c2ccccc2)C1` (centres unmarked) [Example 12, 2-o.Cyanobenzyl-4-phenyl-1,2,3,4-tetrahydro-benzo(b)thieno-[3,2-c]pyridine], the inhibition at 100 mg/kg in experiment [1] was found to be 61.3%; in experiment [2], 92.2%.

Turning to `COC(=O)c1ccccc1CN1Cc2c(sc3ccc(Cl)cc23)C(c2ccccc2)C1C` (centres unmarked) [Example 13, 8-Chloro-3-methyl-2-o.methoxycarbonylbenzyl-4-phenyl-1,2,3,4-tetrahydro-benzo(b)thieno[3,2-c]pyridine], the inhibition at 100 mg/kg in experiment [1] worked out at 62.1%; in experiment [2], 95%.

For the compound `CC1C(c2ccccc2)c2sc3ccc(Cl)cc3c2CN1Cc1ccccc1C(=O)O` (centres unmarked) [Example 14, 2-o.Carboxybenzyl-8-chloro-3-methyl-4-phenyl-1,2,3,4-tetrahydro-benzo(b)thieno[3,2-c]pyridine], the inhibition at 100 mg/kg stood at 60.6% in experiment [1] and 93.8% in experiment [2].

As to `CCCCN1Cc2c(sc3ccc(Cl)cc23)C(c2ccccc2)C1C` (centres unmarked) [Example 15, 2-Butyl-8-chloro-3-methyl-4-phenyl-1,2,3,4-tetrahydro-benzo(b)thieno[3,2-c]pyridine], the inhibition at 100 mg/kg came to 60.1% in experiment [1] and 92.6% in experiment [2].

In the case of `CC1C(c2ccccc2)c2sc3ccccc3c2CN1CCc1ccccc1` (centres unmarked) [Example 16, 3-Methyl-2-phenethyl-4-phenyl-1,2,3,4-tetrahydro-benzo(b)-thieno[3,2-c]pyridine], the inhibition at 100 mg/kg in experiment [1] turned out to be 62.7%; in experiment [2], 93.2%.

As to `CC1C(c2ccccc2)c2sc3ccc(Cl)cc3c2CN1Cc1cccnc1` (centres unmarked) [Example 17, 8-Chloro-3-methyl-4-phenyl-2-(3-pyridyl)methyl-1,2,3,4-tetrahydro-benzo(b)thieno[3,2-c]pyridine], the figures for the inhibition at 100 mg/kg in experiment [1] and in experiment [2] were 63.5% and 90.4%, respectively.

For the compound `CC1C(c2ccccc2)c2sc3ccccc3c2CN1Cc1ccccn1` (centres unmarked) [Example 18, 3-Methyl-4-phenyl-2-(2-pyridyl)methyl-1,2,3,4-tetrahydro-benzo(b)thieno[3,2-c]pyridine], the inhibition at 100 mg/kg amounted to 61.3% in experiment [1] and 91.7% in experiment [2].

On to `CC1C(c2ccccc2)c2sc3ccc(Cl)cc3c2CN1Cc1ccncc1` (centres unmarked) [Example 19, 8-Chloro-3-methyl-4-phenyl-2-(4-pyridyl)methyl-1,2,3,4,-tetrahydrobenzo(b)thieno[3,2-c]pyridine], for which the figures for the inhibition at 100 mg/kg in experiment [1] and in experiment [2] were 62.4% and 91.9%, respectively.

Values taken from US4172134A, “Benzo [B]thienopyridines, process for their preparation and therapeutic compositions containing same” (Parcor, priority 1977, dated 1979).
